{"source": "patent US6544991B2", "about": "“Compositions and methods for treating bacterial infections” (priority 2000, dated 2003)", "key": {"MRSA strains": {"system": "MRSA strains", "assay": "MIC by agar dilution or microbroth dilution method (NCCLS)", "type": "cell-based, Staph. aureus", "design": "MIC50: unit not given beside the values", "conditions": "for MIC: Staphylococcus aureus", "procedure": "(§1) Bacterial isolates were obtained from human infections. The isolates were maintained frozen in a liquid nitrogen freezer and plated on Trypticase Soy Agar (TSA) plates supplemented with 5% sheep blood. The quality control strain Staph. aureus 29213 was originally acquired from the American Type Culture Collection (Rockville, Md.).\n(§2) MICs were determined by an agar dilution method or microbroth dilution method recommended by NCCLS. Synergy was assessed by agar dilution checker-board method. Minimal inhibitory concentrations (MICS) for each separate drug were determined. The fractional inhibitory concentration (FIC) values were calculated by the MIC of Drug A (e.g., sulbactam/ampicillin) and Drug B (e.g., linezolid or arbekacin) in combination/MIC of Drug A or B alone. The FIC index was determined according to the following formula: [formula]"}, "VRSA strains": {"system": "VRSA strains", "assay": "MIC by agar dilution or microbroth dilution method (NCCLS), VRSA strains", "type": "cell-based, Staph. aureus", "conditions": "VRSA strains (n = 10); for MIC: Staphylococcus aureus", "procedure": "as §1, §2\nIn total, 48 MRSA strains were tested, including ten VRSA strains isolated from five different countries in the world, 33 MRSA strains isolated from ten Japanese university hospitals, and five MRSA type strains from Juntendo University, Department of Bacteriology, Tokyo, Japan."}, "Staph. aureus 29213": {"system": "Staph. aureus 29213", "assay": "MIC, quality control strain", "type": "cell-based", "conditions": "Staphylococcus aureus, read-out: MIC Values", "procedure": "as §1, §2"}}, "note": "Like-named read-outs stand apart in the source and are kept apart here."}
{"smiles": "CC(=O)NC[C@H]1CN(c2ccc(N3CCOCC3)c(F)c2)C(=O)O1", "note": "[LZD, (S)-N-[[3-[3-fluoro-4-(4-morpholinyl)phenyl]-2-oxo-5-oxazolidinyl]methyl]acetamide]", "values": [{"measurement": "MIC50", "setting": "MRSA strains; 48 MRSA strains tested, including ten VRSA strains", "value": 2}, {"measurement": "MICs Range", "setting": "MRSA strains; MRSA strains (n = 38)", "value": "0.5 to 2", "unit": "mg/L"}, {"measurement": "MIC", "setting": "MRSA strains; MRSA / NCTC 10442, strain NCTC 10442, read-out: MIC Values", "value": 2, "unit": "µg/mL"}, {"measurement": "MIC", "setting": "MRSA strains; MRSA, MRSA strains (n = 38), read-out: MICs 50%", "value": 2, "unit": "µg/mL"}, {"measurement": "MIC", "setting": "MRSA strains; MRSA, MRSA strains (n = 38), read-out: MICs 90%", "value": 2, "unit": "µg/mL"}, {"measurement": "MIC", "setting": "MRSA strains; MRSA, strain 85/2082, read-out: MIC Values", "value": 2, "unit": "µg/mL"}, {"measurement": "MIC", "setting": "MRSA strains; MRSA, strain 99.3700W, read-out: MIC Values", "value": 2, "unit": "µg/mL"}, {"measurement": "MIC", "setting": "MRSA strains; MRSA, strain 99.3759V, read-out: MIC Values", "value": 2, "unit": "µg/mL"}, {"measurement": "MIC", "setting": "MRSA strains; MRSA, strain AMC 11094, read-out: MIC Values", "value": 2, "unit": "µg/mL"}, {"measurement": "MIC", "setting": "MRSA strains; MRSA, strain BM12612(new), read-out: MIC Values", "value": 2, "unit": "µg/mL"}, {"measurement": "MIC", "setting": "MRSA strains; MRSA, strain H1, read-out: MIC Values", "value": 2, "unit": "µg/mL"}, {"measurement": "MIC", "setting": "MRSA strains; MRSA, strain HIP 5827, read-out: MIC Values", "value": 2, "unit": "µg/mL"}, {"measurement": "MIC", "setting": "MRSA strains; MRSA, strain HIP 5836, read-out: MIC Values", "value": 2, "unit": "µg/mL"}, {"measurement": "MIC", "setting": "MRSA strains; MRSA, strain HIP 6297, read-out: MIC Values", "value": 2, "unit": "µg/mL"}, {"measurement": "MIC", "setting": "MRSA strains; MRSA, strain HIP 7737, read-out: MIC Values", "value": 2, "unit": "µg/mL"}, {"measurement": "MIC", "setting": "MRSA strains; MRSA, strain JSCC 340, read-out: MIC Values", "value": 2, "unit": "µg/mL"}, {"measurement": "MIC", "setting": "MRSA strains; MRSA, strain JSCC 351, read-out: MIC Values", "value": 2, "unit": "µg/mL"}, {"measurement": "MIC", "setting": "MRSA strains; MRSA, strain JSCC 363, read-out: MIC Values", "value": 2, "unit": "µg/mL"}, {"measurement": "MIC", "setting": "MRSA strains; MRSA, strain JSCC 381, read-out: MIC Values", "value": 2, "unit": "µg/mL"}, {"measurement": "MIC", "setting": "MRSA strains; MRSA, strain JSCC 390, read-out: MIC Values", "value": 2, "unit": "µg/mL"}, {"measurement": "MIC", "setting": "MRSA strains; MRSA, strain JSCC 401, read-out: MIC Values", "value": 2, "unit": "µg/mL"}, {"measurement": "MIC", "setting": "MRSA strains; MRSA, strain JSCC 413, read-out: MIC Values", "value": 2, "unit": "µg/mL"}, {"measurement": "MIC", "setting": "MRSA strains; MRSA, strain JSCC 431, read-out: MIC Values", "value": 2, "unit": "µg/mL"}, {"measurement": "MIC", "setting": "MRSA strains; MRSA, strain JSCC 440, read-out: MIC Values", "value": 2, "unit": "µg/mL"}, {"measurement": "MIC", "setting": "MRSA strains; MRSA, strain JSCC 451, read-out: MIC Values", "value": 2, "unit": "µg/mL"}, {"measurement": "MIC", "setting": "MRSA strains; MRSA, strain JSCC 463, read-out: MIC Values", "value": 2, "unit": "µg/mL"}, {"measurement": "MIC", "setting": "MRSA strains; MRSA, strain JSCC 481, read-out: MIC Values", "value": 2, "unit": "µg/mL"}, {"measurement": "MIC", "setting": "MRSA strains; MRSA, strain JSCC 490, read-out: MIC Values", "value": 2, "unit": "µg/mL"}, {"measurement": "MIC", "setting": "MRSA strains; MRSA, strain JSCC 501, read-out: MIC Values", "value": 2, "unit": "µg/mL"}, {"measurement": "MIC", "setting": "MRSA strains; MRSA, strain JSCC 513, read-out: MIC Values", "value": 1, "unit": "µg/mL"}, {"measurement": "MIC", "setting": "MRSA strains; MRSA, strain JSCC 531, read-out: MIC Values", "value": 1, "unit": "µg/mL"}, {"measurement": "MIC", "setting": "MRSA strains; MRSA, strain JSCC 540, read-out: MIC Values", "value": 1, "unit": "µg/mL"}, {"measurement": "MIC", "setting": "MRSA strains; MRSA, strain JSCC 551, read-out: MIC Values", "value": 2, "unit": "µg/mL"}, {"measurement": "MIC", "setting": "MRSA strains; MRSA, strain JSCC 563, read-out: MIC Values", "value": 1, "unit": "µg/mL"}, {"measurement": "MIC", "setting": "MRSA strains; MRSA, strain JSCC 581 (lacks the mecA gene), read-out: MIC Values", "value": 2, "unit": "µg/mL"}, {"measurement": "MIC", "setting": "MRSA strains; MRSA, strain JSCC 590 (lacks the mecA gene), read-out: MIC Values", "value": 2, "unit": "µg/mL"}, {"measurement": "MIC", "setting": "MRSA strains; MRSA, strain JSCC 601, read-out: MIC Values", "value": 1, "unit": "µg/mL"}, {"measurement": "MIC", "setting": "MRSA strains; MRSA, strain JSCC 640, read-out: MIC Values", "value": 1, "unit": "µg/mL"}, {"measurement": "MIC", "setting": "MRSA strains; MRSA, strain JSCC 651, read-out: MIC Values", "value": 2, "unit": "µg/mL"}, {"measurement": "MIC", "setting": "MRSA strains; MRSA, strain JSCC 663, read-out: MIC Values", "value": 2, "unit": "µg/mL"}, {"measurement": "MIC", "setting": "MRSA strains; MRSA, strain JSCC 681, read-out: MIC Values", "value": 0.5, "unit": "µg/mL"}, {"measurement": "MIC", "setting": "MRSA strains; MRSA, strain JSCC 690, read-out: MIC Values", "value": 1, "unit": "µg/mL"}, {"measurement": "MIC", "setting": "MRSA strains; MRSA, strain JSCC 701, read-out: MIC Values", "value": 1, "unit": "µg/mL"}, {"measurement": "MIC", "setting": "MRSA strains; MRSA, strain JSCC 713, read-out: MIC Values", "value": 2, "unit": "µg/mL"}, {"measurement": "MIC", "setting": "MRSA strains; MRSA, strain JSCC 731, read-out: MIC Values", "value": 1, "unit": "µg/mL"}, {"measurement": "MIC", "setting": "MRSA strains; MRSA, strain JSCC 740, read-out: MIC Values", "value": 2, "unit": "µg/mL"}, {"measurement": "MIC", "setting": "MRSA strains; MRSA, strain JSCC 751, read-out: MIC Values", "value": 2, "unit": "µg/mL"}, {"measurement": "MIC", "setting": "MRSA strains; MRSA, strain JSCC 763, read-out: MIC Values", "value": 2, "unit": "µg/mL"}, {"measurement": "MIC", "setting": "MRSA strains; MRSA, strain JSCC 781, read-out: MIC Values", "value": 2, "unit": "µg/mL"}, {"measurement": "MIC", "setting": "MRSA strains; MRSA, strain JSCC 870, read-out: MIC Values", "value": 2, "unit": "µg/mL"}, {"measurement": "MIC", "setting": "MRSA strains; MRSA, strain LIM 2, read-out: MIC Values", "value": 1, "unit": "µg/mL"}, {"measurement": "MIC", "setting": "MRSA strains; MRSA, strain Mu 3, read-out: MIC Values", "value": 2, "unit": "µg/mL"}, {"measurement": "MIC", "setting": "MRSA strains; MRSA, strain Mu 50, read-out: MIC Values", "value": 2, "unit": "µg/mL"}, {"measurement": "susceptibility (range of MICs)", "setting": "MRSA strains; all tested MRSA isolates, including VRSA strains", "value": "susceptible range of MICs"}, {"measurement": "MIC", "setting": "VRSA strains; read-out: MICs 50%", "value": 2, "unit": "µg/mL"}, {"measurement": "MIC", "setting": "VRSA strains; read-out: MICs 90%", "value": 2, "unit": "µg/mL"}, {"measurement": "MICs Range", "setting": "VRSA strains", "value": "1 to 2", "unit": "mg/L"}, {"measurement": "MIC", "setting": "Staph. aureus 29213; ATCC29213, strain ATCC 29213, control sample (Ex. 26)", "value": 2, "unit": "µg/mL"}, {"measurement": "MIC", "setting": "Staph. aureus 29213; ATCC29213, strain ATCC29213, control sample (Ex. 37)", "value": 2, "unit": "µg/mL"}]}
